One assay deals with C-PVR cells. Put plainly: CyQuant cell proliferation assay in human patient derived primary cultures of PVR. The assay is classed as cell-based. On the procedure: Twelve candidate drugs were tested at 2 concentrations at 72 hours for their effects on proliferation and cytotoxicity in C-PVR cells. […] Each anti-proliferative drug was tested at 2 concentrations determined by using the IC50 of each drug. The data was expressed as percent cell inhibition.
The cells were washed and the CyQuant Direct nucleic acid stain was added and incubated at 37 degrees in the incubator. Fluorescence read outs were measured at wavelengths as instructed in the protocol.

Another assay has as its system human PVR explants. Put plainly: Ex vivo human PVR explant outgrowth and sprouting model. The assay is classed as cell-based. Conditions: for sprouting distance from the explant (in words): 3-10 days; for total branch length of outgrowths: vehicle 167 mm.
Setting [1] is: Homo sapiens, 5 μM, 72 hours, C-PVR cells.
The mark [2] stands for this setting: Homo sapiens, 72 hours, C-PVR cells.

As for `Oc1ccc(C=Cc2cc(O)cc(O)c2)cc1` [resveratrol], the inhibition at 5 µM in the assay with C-PVR cells (setting [1]) was determined as 28%.

In the assay on C-PVR cells (setting [2]), `CC(C)[C@H](O)C(=O)N[C@@H](C)C(=O)N[C@@H]1C(=O)N(C)CCc2ccccc21` [semagacestat] had an inhibition at 1 µM of 28%. Moreover, the inhibition at 5 µM in the assay with C-PVR cells (setting [1]) turned out to be 30%.

As to `Cc1cn([C@H]2C=C[C@@H](CO)O2)c(=O)[nH]c1=O` [stavudine], in the assay on C-PVR cells (setting [1]), the inhibition at 5 µM was 19%.

`O=C1CN=C(c2ccc[nH]2)c2cc(Cl)ccc2N1` [RUNX1 inhibitor, Ro5-3335]: in the assay with C-PVR cells (150 μM alone, 48 and 72 hours), the “inhibition of growth of C-PVR cells (in words)” value was “efficacious at inhibiting growth of C-PVR cells”.

`COC(=O)N[C@H](C(=O)N1CCC[C@H]1c1ncc(-c2ccc(-c3ccc(-c4cnc([C@@H]5CCCN5C(=O)[C@@H](NC(=O)OC)C(C)C)[nH]4)cc3)cc2)[nH]1)C(C)C` [daclatsvir]: the “inhibition of cell proliferation” value with C-PVR cells (5 μM, 72 hours, C-PVR cells) worked out at 16%.

In the case of `N[C@@H](Cc1ccc(N(CCCl)CCCl)cc1)C(=O)O` [melphalan, 4-[bis(2-chloroethyl)amino]-L-phenylalanine], in the assay on human PVR explants (30 μM alone), the “sprouting distance from the explant (in words)” value is reported as “statistically significant reduction in sprouting distance”. For the same compound, the “total branch length of outgrowths” value in the assay with human PVR explants (30 μM) was determined as 27.5 mm. Further, the “reduction of cell proliferation” value in the assay on C-PVR cells (60 μM, 72 hours, C-PVR cells) worked out at 83%. Besides, 30 µM produced 74% inhibition in the assay on C-PVR cells (Homo sapiens, 30 μM, 72 hours, C-PVR cells). Further, the “inhibition of proliferation of C-PVR cells (in words)” value with C-PVR cells (concentrations of 30 nM and 60 nM (so in the source), FIG. 1A) is “effectively inhibited the proliferation of C-PVR cells”.

Take `CC[C@@]1(O)C(=O)OCc2c1cc1n(c2=O)Cc2cc3c(CN(C)C)c(O)ccc3nc2-1` [Topotecan, topotecan]: the “total branch length of outgrowths” value in the assay on human PVR explants (40 nM (so in the source)) was 34 mm. Besides, the “sprouting distance from the explant (in words)” value in the assay on human PVR explants (80 nM alone) was “statistically significant reduction in sprouting distance”. Further, the decrease in proliferation turned out to be 54% with C-PVR cells (40 nM, 72 hours, C-PVR cells) and 53% with C-PVR cells (80 nM, 72 hours, C-PVR cells). Also, in the assay on C-PVR cells (concentrations of 40 nM and 80 nM, FIG. 1B), the “inhibition of proliferation of C-PVR cells (in words)” value is “effectively inhibited the proliferation of C-PVR cells”.

Regarding `Nc1cccc2c1CN(C1CCC(=O)NC1=O)C2=O` (stereo not shown) [lenalidomide], in the assay on C-PVR cells (concentration not given, 72 hours, C-PVR cells), the inhibition of proliferation is given as 24%.

Consider `COc1cccc2c1C(=O)c1c(O)c3c(c(O)c1C2=O)C[C@@](O)(C(C)=O)C[C@@H]3O[C@H]1C[C@H](N)[C@H](O)[C@H](C)O1` [Daunorubicin], for which the reduction in proliferation is 50% with C-PVR cells (15 nM, 72 hours, C-PVR cells) and 53% with C-PVR cells (30 nM, 72 hours, C-PVR cells).

With `Cn1c(CCCC(=O)O)nc2cc(N(CCCl)CCCl)ccc21` [bendamustine], in the assay on C-PVR cells (setting [2]), the inhibition at 1 µM was 25%. The compound further came in with an inhibition at 5 µM in the assay on C-PVR cells (setting [1]) of 20%.

Take `CN1CCN(c2c(F)cc3c(=O)c(C(=O)O)cn4c3c2OCN4C)CC1` [marbofloxacin]: the inhibition at 5 µM in the assay on C-PVR cells (setting [1]) came to 30%.
